Test results reported in patent US20240285670A1, “THERAPEUTIC TREATMENT OF TUMORS BY BLOCKING THE HEME SYNTHESIS-EXPORT AXIS” (Università degli Studi di Torino, priority 2021, published 2024).

What was measured:
SHSY5Y cells = assay: Proliferation of SHSY5Y cells by crystal violet staining; assay type: cell-based, human; details: 5 mM ALA at day 0, no medium refresh
Description: (A) Heme content in SHSY5Y cells non-treated (NT) or treated with 5 mM ALA for 15 hours. Values are expressed as pmol heme/mg protein. Data represent mean±SEM, n=3; *=P<0.05. (B, C) qRT-PCR analysis of the expression of ALAS1 (B) and FLVCR1a (C) in SHSY5Y cells non-treated (NT) or treated with 5 mM ALA for 15 hours. Transcript abundance, normalized to beta-actin mRNA expression, is expressed as a fold increase over a calibrator sample. Data represent mean±SEM, n=4. For statistical analyses, an unpaired Student's t-test was used; *p<0.05. (D) qRT-PCR analysis of the expression of ALAS1 in SKCO1 cells untreated (NT) or treated with 5 mM ALA for 24 hours. Transcript abundance, normalized to beta-actin mRNA expression, is expressed as a fold increase over a calibrator sample. Data represent mean±SEM, n=5. […] Band intensities were measured by densitometry and normalized to beta-actin expression. […] (F) Proliferation of SHSY5Y cells assessed by crystal violet staining at different time points (starting from the day after plating, named “day 0”). Treatment with 5 mM ALA occurred at “day 0” and cells were monitored until the end of the experiment without medium refresh. […] (G) SKCO1 cells viability measured by the CellTiter-Fluor Cell Viability Assay (Promega, Madison, WI USA, catalog n°G6080) at different time points, starting from the day after plating (named “day 0”), as a readout of cell proliferation. […]

BTECs = assay: In vitro tubulogenesis assay on matrigel; assay type: cell-based, human; details: FLVCR1a-silenced vs scramble shRNA BTECs, 18 hours
Text: (A) BTECs counting, as a readout of cell proliferation, at the indicated time points. […] Data represent mean±SEM, n=4. For statistical analyses, a two-way analysis of variance was used, followed by the Bonferroni correction for multiple group comparisons; ***p<0.001. (B) Quantification of BTECs migration rate in wound-healing assay. […] Data represent mean±SEM, n=32. For statistical analyses, a nonparametric unpaired Mann-Whitney test was used; ***p<0.001. (C) In vitro tubulogenesis assay on matrigel. […] The number of nodes counted within the neo-formed vascular networks is shown. Data represent mean±SEM; n=10. For statistical analyses, a nonparametric unpaired Mann-Whitney test was used; **p<0.01.
To assess in vitro formation of capillary-like structures, 3.5*10^4 BTECs were seeded in 24-well plates coated with BD Matrigel Matrix Growth Factor Reduced (BD Biosciences, Franklin Lakes, NJ USA, catalog n°356230). Cell organization on Matrigel was monitored using a Nikon Eclipse T-E microscope with a Nikon Plan 10×/0.10 NA objective. […] Images obtained 18 hours after the start of the experiment were analysed using Fiji open source software (Schindelin et al., 2012) (http://fiji.sc/ RRID:SCR_002285) in order to assess the number of nodes (intersections formed by at least three detectable cells) for each field. […]

Compound	cell proliferation (SHSY5Y cells)	formation of microvascular network on matrigel (number of nodes) (BTECs)
Cl.NCC(=O)CCC(=O)O [5-ALA, 5-Aminolevulinic acid hydrochloride]	reduced SHSY5Y cell proliferation	
FLVCR1a shRNA: shRNA specifically down-regulating FLVCR1a without targeting FLVCR1b; pLKO.1 lentiviral clone TRCN0000059599, antisense SEQ ID No.: 2 (antisense TTGCTAATGATGCTGTACTGG; sense CCAGTACAGCATCATTAGCAA)		impaired ability to form a complex microvascular network on matrigel
